System: vasopressor response of angiotensin II
Test: AII Challenge: antagonism of angiotensin II vasopressor response
Format: in vivo
Conditions: for inhibition in vivo at 1 mg/kg / inhibition in vivo at 3 mg/kg / inhibition in vivo at 5 mg/kg: Rattus norvegicus; for inhibition in vivo at 1 mg/kg / inhibition in vivo at 3 mg/kg: iv; for inhibition in vivo at 5 mg/kg: po
Procedure, shortened: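 Percent antagonism is based on the systolic blood pressure rise (mmHg) to i.v. angiotensin II at 0.05 and 0.1 ug/kg. Each rat's own predose response was taken as 100%. Challenges were repeated from 30 to 300 min after i.v., i.p. or oral compound in cannulated conscious male SHR, 16-20 weeks old.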

[1] = 1 mg/kg i.v., AII 0.05 mcg/kg IV, 30 min post dose
[2] = 1 mg/kg i.v., AII 0.05 mcg/kg IV, 60 min post dose
[3] = 1 mg/kg i.v., AII 0.05 mcg/kg IV, 90 min post dose
[4] = 1 mg/kg i.v., AII 0.05 mcg/kg IV, 120 min post dose
[5] = 1 mg/kg i.v., AII 0.05 mcg/kg IV, 180 min post dose
[6] = 1 mg/kg i.v., AII 0.05 mcg/kg IV, 240 min post dose
[7] = 1 mg/kg i.v., AII 0.05 mcg/kg IV, 300 min post dose
[8] = 1 mg/kg i.v., AII 0.1 mcg/kg IV, 30 min post dose
[9] = 1 mg/kg i.v., AII 0.1 mcg/kg IV, 60 min post dose
[10] = 1 mg/kg i.v., AII 0.1 mcg/kg IV, 90 min post dose
[11] = 1 mg/kg i.v., AII 0.1 mcg/kg IV, 120 min post dose
[12] = 1 mg/kg i.v., AII 0.1 mcg/kg IV, 180 min post dose
[13] = 1 mg/kg i.v., AII 0.1 mcg/kg IV, 240 min post dose
[14] = 1 mg/kg i.v., AII 0.1 mcg/kg IV, 300 min post dose
[15] = 0.5 h, 1 mg/kg i.v., AII 0.05 mcg/kg IV, 30 min post dose
[16] = 0.5 h, 1 mg/kg i.v., AII 0.1 mcg/kg IV, 30 min post dose
[17] = 1 h, 1 mg/kg i.v., AII 0.05 mcg/kg IV, 60 min post dose
[18] = 1 h, 1 mg/kg i.v., AII 0.1 mcg/kg IV, 60 min post dose
[19] = 2 h, 1 mg/kg i.v., AII 0.05 mcg/kg IV, 120 min post dose
[20] = 2 h, 1 mg/kg i.v., AII 0.1 mcg/kg IV, 120 min post dose
[21] = 3 h, 1 mg/kg i.v., AII 0.05 mcg/kg IV, 180 min post dose
[22] = 3 h, 1 mg/kg i.v., AII 0.1 mcg/kg IV, 180 min post dose
[23] = 4 h, 1 mg/kg i.v., AII 0.05 mcg/kg IV, 240 min post dose
[24] = 5 h, 1 mg/kg i.v., AII 0.05 mcg/kg IV, 300 min post dose
[25] = 5 h, 1 mg/kg i.v., AII 0.1 mcg/kg IV, 300 min post dose
[26] = […], 1 mg/kg i.v., AII 0.05 mcg/kg IV, 90 min post dose
[27] = […], 1 mg/kg i.v., AII 0.1 mcg/kg IV, 90 min post dose

## CCCCc1nc2ccc([C@@]3(c4ccccc4)C[C@@H]4CCCN4O3)cc2c(=O)n1Cc1ccc(-c2ccccc2-c2nnn[nH]2)cc1 (relative stereo) [Example 70, Cis-2-butyl-6-(hexahydro-2-phenylpyrrolo-[1,2-b]isoxazol-2-yl)-3-[[2'-(1H-tetrazol-5-yl)[1,1'-biphenyl]-4-yl]methyl]-4(3H)-quinazolinone]
[1]
  Response Average Change: 23.5 mmHg
[2]
  Response Average Change: 12.5 mmHg
[3]
  Response Average Change: 12.5 mmHg
[4]
  Response Average Change: 20 mmHg
[5]
  Response Average Change: 20 mmHg
[6]
  Response Average Change: 27.5 mmHg
[7]
  Response Average Change: 30 mmHg
[8]
  Response Average Change: 30 mmHg
[9]
  Response Average Change: 17.5 mmHg
[10]
  Response Average Change: 30.5 mmHg
[11]
  Response Average Change: 26 mmHg
[12]
  Response Average Change: 30 mmHg
[13]
  Response Average Change: 30 mmHg
[14]
  Response Average Change: 37.5 mmHg
[15]
  inhibition in vivo at 1 mg/kg: 48%
[16]
  inhibition in vivo at 1 mg/kg: 37%
[17]
  inhibition in vivo at 1 mg/kg: 72%
[18]
  inhibition in vivo at 1 mg/kg: 63%
[19]
  inhibition in vivo at 1 mg/kg: 56%
[20]
  inhibition in vivo at 1 mg/kg: 45%
[21]
  inhibition in vivo at 1 mg/kg: 56%
[22]
  inhibition in vivo at 1 mg/kg: 37%
[23]
  inhibition in vivo at 1 mg/kg: 39%
4 h, 1 mg/kg i.v., AII 0.1 mcg/kg IV, 240 min post dose
  inhibition in vivo at 1 mg/kg: 37%
[24]
  inhibition in vivo at 1 mg/kg: 33%
[25]
  inhibition in vivo at 1 mg/kg: 21%
[26]
  inhibition in vivo at 1 mg/kg: 72%
[27]
  inhibition in vivo at 1 mg/kg: 36%

## CCCCc1nc2ccc([C@]3(CC)C[C@@H]4CCCN4O3)cc2c(=O)n1Cc1ccc(-c2ccccc2-c2nnn[nH]2)cc1 (relative stereo) [Example 72, Trans-2-butyl-6-(2-ethylhexahydropyrrolo[1,2-b]isoxazol-2-yl)-3-[[2'-(1H-tetrazol-5-yl)[1,1'-biphenyl]-4-yl]methyl]-4(3H)-quinazolinone]
[1]
  Response Average Change: 20 mmHg
[2]
  Response Average Change: 15 mmHg
[3]
  Response Average Change: 17.5 mmHg
[4]
  Response Average Change: 22.5 mmHg
[5]
  Response Average Change: 36.5 mmHg
[6]
  Response Average Change: 30 mmHg
[7]
  Response Average Change: 37.5 mmHg
[8]
  Response Average Change: 25.5 mmHg
[9]
  Response Average Change: 17.5 mmHg
[10]
  Response Average Change: 32.5 mmHg
[11]
  Response Average Change: 25 mmHg
[12]
  Response Average Change: 35 mmHg
[13]
  Response Average Change: 40 mmHg
[14]
  Response Average Change: 42.5 mmHg
[15]
  inhibition in vivo at 1 mg/kg: 60%
[16]
  inhibition in vivo at 1 mg/kg: 58%
[17]
  inhibition in vivo at 1 mg/kg: 70%
[18]
  inhibition in vivo at 1 mg/kg: 71%
[19]
  inhibition in vivo at 1 mg/kg: 55%
[20]
  inhibition in vivo at 1 mg/kg: 58%
[21]
  inhibition in vivo at 1 mg/kg: 27%
[22]
  inhibition in vivo at 1 mg/kg: 42%
[23]
  inhibition in vivo at 1 mg/kg: 40%
[24]
  inhibition in vivo at 1 mg/kg: 35%
[25]
  inhibition in vivo at 1 mg/kg: 29%
[26]
  inhibition in vivo at 1 mg/kg: 65%
[27]
  inhibition in vivo at 1 mg/kg: 46%

## CCCCc1nc2ccc(C3ON4CCCC4C3C(=O)OCC)cc2c(=O)n1Cc1ccc(-c2ccccc2-c2nnn[nH]2)cc1 (centres unmarked) [Example 62, Ethyl 2-[2-butyl-3,4-dihydro-4-oxo-3-[[2'-(1H-tetrazol-5-yl)[1,1'-biphenyl]-4-yl]methyl]-6quinazolinyl]hexahydro-pyrrolo[1,2-b]isoxazole3-carboxylate]
3 mg/kg I.V., AII 0.05 mcg/kg IV, 30 min post dose
  Response Average Change: 14 mmHg
3 mg/kg I.V., AII 0.05 mcg/kg IV, 60 min post dose
  Response Average Change: 18 mmHg
3 mg/kg I.V., AII 0.05 mcg/kg IV, 90 min post dose
  Response Average Change: 30 mmHg
3 mg/kg I.V., AII 0.05 mcg/kg IV, 120 min post dose
  Response Average Change: 25 mmHg
3 mg/kg I.V., AII 0.05 mcg/kg IV, 180 min post dose
  Response Average Change: 33.5 mmHg
3 mg/kg I.V., AII 0.1 mcg/kg IV, 30 min post dose
  Response Average Change: 10 mmHg
3 mg/kg I.V., AII 0.1 mcg/kg IV, 60 min post dose
  Response Average Change: 36 mmHg
3 mg/kg I.V., AII 0.1 mcg/kg IV, 90 min post dose
  Response Average Change: 40 mmHg
3 mg/kg I.V., AII 0.1 mcg/kg IV, 120 min post dose
  Response Average Change: 35 mmHg
3 mg/kg I.V., AII 0.1 mcg/kg IV, 180 min post dose
  Response Average Change: 35 mmHg
5 mg/kg P.O., AII 0.05 mcg/kg IV, 30 min post dose
  Response Average Change: 22.5 mmHg
5 mg/kg P.O., AII 0.05 mcg/kg IV, 60 min post dose
  Response Average Change: 37.5 mmHg
5 mg/kg P.O., AII 0.05 mcg/kg IV, 120 min post dose
  Response Average Change: 40 mmHg
5 mg/kg P.O., AII 0.05 mcg/kg IV, 180 min post dose
  Response Average Change: 25 mmHg
5 mg/kg P.O., AII 0.05 mcg/kg IV, 240 min post dose
  Response Average Change: 40 mmHg
5 mg/kg P.O., AII 0.1 mcg/kg IV, 30 min post dose
  Response Average Change: 43.5 mmHg
5 mg/kg P.O., AII 0.1 mcg/kg IV, 60 min post dose
  Response Average Change: 43.5 mmHg
5 mg/kg P.O., AII 0.1 mcg/kg IV, 90 min post dose
  Response Average Change: 45 mmHg
5 mg/kg P.O., AII 0.1 mcg/kg IV, 120 min post dose
  Response Average Change: 45 mmHg
5 mg/kg P.O., AII 0.1 mcg/kg IV, 180 min post dose
  Response Average Change: 47.5 mmHg
5 mg/kg P.O., AII 0.1 mcg/kg IV, 240 min post dose
  Response Average Change: 50 mmHg
0.5 h, 3 mg/kg I.V., AII 0.05 mcg/kg IV, 30 min post dose
  inhibition in vivo at 3 mg/kg: 61%
0.5 h, 3 mg/kg I.V., AII 0.1 mcg/kg IV, 30 min post dose
  inhibition in vivo at 3 mg/kg: 82%
1 h, 3 mg/kg I.V., AII 0.05 mcg/kg IV, 60 min post dose
  inhibition in vivo at 3 mg/kg: 49%
1 h, 3 mg/kg I.V., AII 0.1 mcg/kg IV, 60 min post dose
  inhibition in vivo at 3 mg/kg: 36%
2 h, 3 mg/kg I.V., AII 0.05 mcg/kg IV, 120 min post dose
  inhibition in vivo at 3 mg/kg: 30%
2 h, 3 mg/kg I.V., AII 0.1 mcg/kg IV, 120 min post dose
  inhibition in vivo at 3 mg/kg: 38%
3 h, 3 mg/kg I.V., AII 0.05 mcg/kg IV, 180 min post dose
  inhibition in vivo at 3 mg/kg: 6%
3 h, 3 mg/kg I.V., AII 0.1 mcg/kg IV, 180 min post dose
  inhibition in vivo at 3 mg/kg: 38%
[…], 3 mg/kg I.V., AII 0.05 mcg/kg IV, 90 min post dose
  inhibition in vivo at 3 mg/kg: 15%
[…], 3 mg/kg I.V., AII 0.1 mcg/kg IV, 90 min post dose
  inhibition in vivo at 3 mg/kg: 29%
0.5 h, 5 mg/kg P.O., AII 0.05 mcg/kg IV, 30 min post dose
  inhibition in vivo at 5 mg/kg: 44%
0.5 h, 5 mg/kg P.O., AII 0.1 mcg/kg IV, 30 min post dose
  inhibition in vivo at 5 mg/kg: -5%
1 h, 5 mg/kg P.O., AII 0.05 mcg/kg IV, 60 min post dose
  inhibition in vivo at 5 mg/kg: 6%
1 h, 5 mg/kg P.O., AII 0.1 mcg/kg IV, 60 min post dose
  inhibition in vivo at 5 mg/kg: -5%
2 h, 5 mg/kg P.O., AII 0.05 mcg/kg IV, 120 min post dose
  inhibition in vivo at 5 mg/kg: 0%
2 h, 5 mg/kg P.O., AII 0.1 mcg/kg IV, 120 min post dose
  inhibition in vivo at 5 mg/kg: -8%
3 h, 5 mg/kg P.O., AII 0.05 mcg/kg IV, 180 min post dose
  inhibition in vivo at 5 mg/kg: 38%
3 h, 5 mg/kg P.O., AII 0.1 mcg/kg IV, 180 min post dose
  inhibition in vivo at 5 mg/kg: -14%
4 h, 5 mg/kg P.O., AII 0.05 mcg/kg IV, 240 min post dose
  inhibition in vivo at 5 mg/kg: 0%
4 h, 5 mg/kg P.O., AII 0.1 mcg/kg IV, 240 min post dose
  inhibition in vivo at 5 mg/kg: -20%
[…], 5 mg/kg P.O., AII 0.05 mcg/kg IV, 90 min post dose
  inhibition in vivo at 5 mg/kg: 19%
[…], 5 mg/kg P.O., AII 0.1 mcg/kg IV, 90 min post dose
  inhibition in vivo at 5 mg/kg: -8%

Reference: US5358951A, “Angiotensin II receptor blocking 2, 3, 6 substituted quinazolinones” (American Cyanamid Company, priority 1993, dated 1994)
